How the values were obtained:
[1] = Thermal stability (vacuum distillation / decomposition on heating); type: physicochemical
[2] = Solubility of diethylborylated sugars and polysaccharides; type: physicochemical

| SMILES | stability on distillation under high vacuum ([1]; high vacuum, 136° C.) | stability on vacuum distillation [1] | solubility in hydrocarbons [2] | Decomposition of the compound begins at ([1]; with evolution of triethyl borane) [°C] | solubility in aliphatic and aromatic hydrocarbons and in carbon tetrachloride ([2]; aliphatic and aromatic hydrocarbons and carbon tetrachloride) |
| --- | --- | --- | --- | --- | --- |
| CCB(CC)OC[C@H]1OC(OB(CC)CC)[C@H](OB(CC)CC)[C@@H](OB(CC)CC)[C@@H]1OB(CC)CC (single isomer, unassigned) [1,2,3,4,5-Pentakis-diethyl-boryl-D(+)-glucose] | without decomposition | without decomposition | very readily soluble | – | – |
| CCB(CC)OC[C@H]1O[C@H](OC)[C@H](OB(CC)CC)[C@@H](OB(CC)CC)[C@@H]1OB(CC)CC [2,3,4,6-tetrakis(diethylboryl)-α-methyl-D-(+)-glucoside] | – | without decomposition | very readily soluble | – | – |
| CCB(CC)OC[C@H](OB(CC)CC)[C@H]1OC(=O)C(OB(CC)CC)=C1OB(CC)CC [2.3.5.6-Tetrakis-diethylboryl-L(+)-ascorbic acid] | – | without decomposition | very readily soluble | – | – |
| CCB(CC)OC[C@H]1O[C@@H]2O[C@H]3[C@H](OB(CC)CC)[C@@H](OB(CC)CC)[C@@H](O[C@H]4[C@H](OB(CC)CC)[C@@H](OB(CC)CC)[C@@H](O[C@H]5[C@H](OB(CC)CC)[C@@H](OB(CC)CC)[C@@H](O[C@H]6[C@H](OB(CC)CC)[C@@H](OB(CC)CC)[C@@H](O[C@H]7[C@H](OB(CC)CC)[C@@H](OB(CC)CC)[C@@H](O[C@H]8[C@H](OB(CC)CC)[C@@H](OB(CC)CC)[C@@H](O[C@H]1[C@H](OB(CC)CC)[C@H]2OB(CC)CC)O[C@@H]8COB(CC)CC)O[C@@H]7COB(CC)CC)O[C@@H]6COB(CC)CC)O[C@@H]5COB(CC)CC)O[C@@H]4COB(CC)CC)O[C@@H]3COB(CC)CC [(I), Per-O-diethylboryl-cyclohepta-amylose] | – | – | – | 141 | soluble |
